The text below walks through data of patent US20090215857A1 (Pfizer Products Inc., priority 2005, published 2009).

Test [1] has as its target T1, human norepinephrine transporter (Homo sapiens, UniProt P23975).
T1 construct: expressed in transfected cells; host or cells: HEK-293
Briefly: hNET receptor binding ([125I]-RTI-55 radioligand). Conditions: membranes of HEK-293 cells transfected with human norepinephrine transporter cDNA; 50 pM [125I]-RTI-55; IC50 converted by Cheng-Prusoff; read-out: NET Ki. Here is the method: Cell pastes of HEK-293 cells transfected with a human norepinephrine transporter cDNA were prepared. The cell pastes were resuspended in 400 to 700 ml of Krebs-HEPES assay buffer (25 mM HEPES, 122 mM NaCl, 3 mM KCl, 1.2 mM MgSO4, 1.3 mM CaCl2, and 11 mM glucose, pH 7.4) with a Polytron homogenizer at setting 7 for 30 seconds. Aliquots of membranes (5 mg/ml protein) were stored in liquid nitrogen until used.
The binding assay was set up in Beckman deep-well polypropylene plates with a total volume of 250 μl containing: test compound (10^−5M to 10^−12M), cell membranes, and 50 pM [^125I]-RTI-55 (Perkin Elmer, NEX-272; specific activity 2200 Ci/mmol). The reaction was incubated by gentle agitation for 90 minutes at room temperature and was terminated by filtration through Whatman GF/C filter plates using a Brandel 96-well plate harvester. Scintillation fluid (100 μl) was added to each well, and bound [^125I]-RTI-55 was determined using a Wallac Trilux Beta Plate Counter. Test compounds were run in duplicate, and specific binding was defined as the difference between binding in the presence and absence of 10 μM desipramine.
Excel and GraphPad Prism software were used for data calculation and analysis. IC50 values were converted to K, values using the Cheng-Prusoff equation.

The target in test [2] is T2, human serotonin transporter (Homo sapiens, UniProt P31645).
T2 construct: expressed in transfected cells; host or cells: HEK-293
T2 sequence (P31645 whole entry): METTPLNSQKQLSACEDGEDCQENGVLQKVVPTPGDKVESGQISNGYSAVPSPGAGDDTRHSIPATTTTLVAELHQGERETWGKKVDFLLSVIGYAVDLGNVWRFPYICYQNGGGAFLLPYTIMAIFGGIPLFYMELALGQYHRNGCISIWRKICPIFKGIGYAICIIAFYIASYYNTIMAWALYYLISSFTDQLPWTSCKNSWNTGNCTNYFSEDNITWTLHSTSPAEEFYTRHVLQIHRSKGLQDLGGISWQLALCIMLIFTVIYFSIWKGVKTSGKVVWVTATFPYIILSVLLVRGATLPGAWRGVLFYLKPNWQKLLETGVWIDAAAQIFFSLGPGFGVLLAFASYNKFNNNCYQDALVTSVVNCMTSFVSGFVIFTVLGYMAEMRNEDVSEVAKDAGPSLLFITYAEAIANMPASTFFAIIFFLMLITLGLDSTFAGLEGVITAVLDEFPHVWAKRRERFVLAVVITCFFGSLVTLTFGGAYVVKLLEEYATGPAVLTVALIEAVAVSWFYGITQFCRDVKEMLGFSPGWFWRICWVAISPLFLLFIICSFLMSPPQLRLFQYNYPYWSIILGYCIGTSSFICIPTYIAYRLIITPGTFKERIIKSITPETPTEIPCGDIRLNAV
Briefly: hSERT receptor binding ([125I]-RTI-55 radioligand). Particulars: membranes of HEK-293 cells transfected with human serotonin transporter cDNA; 50 pM [125I]-RTI-55; IC50 converted by Cheng-Prusoff; read-out: SERT Ki. The procedure: Cell pastes of HEK-293 cells transfected with a human serotonin transporter cDNA were prepared. The cell pastes were resuspended in 400 to 700 ml of Krebs-HEPES assay buffer (25 mM HEPES, 122 mM NaCl, 3 mM KCl, 1.2 mM MgSO4, 1.3 mM CaCl2, and 11 mM glucose, pH 7.4) with a Polytron homogenizer at Setting 7 for 30 seconds. Aliquots of membranes (˜2.5 mg/ml protein) were stored in liquid nitrogen until used.
Assays were set up in FlashPlates pre-coated with 0.1% PEI in a total volume of 250 μl containing: test compound (10^−5M to 10^−12M), cell membranes, and 50 pM [^125I]-RTI-55 (Perkin Elmer, NEX-272; specific activity 2200 Ci/mmol). The reaction was incubated and gently agitated for 90 minutes at room temperature, and terminated by removal of assay volume. Plates were covered, and bound [^125I]-RTI-55 was determined using a Wallac Trilux Beta Plate Counter. Test compounds were run in duplicate, and specific binding was defined as the difference between binding in the presence and absence of 10 μM citalopram.
Excel and GraphPad Prism software were used for data calculation and analysis. IC50 values were converted to Ki values using the Cheng-Prusoff equation.

T1 sequence (P23975 whole entry): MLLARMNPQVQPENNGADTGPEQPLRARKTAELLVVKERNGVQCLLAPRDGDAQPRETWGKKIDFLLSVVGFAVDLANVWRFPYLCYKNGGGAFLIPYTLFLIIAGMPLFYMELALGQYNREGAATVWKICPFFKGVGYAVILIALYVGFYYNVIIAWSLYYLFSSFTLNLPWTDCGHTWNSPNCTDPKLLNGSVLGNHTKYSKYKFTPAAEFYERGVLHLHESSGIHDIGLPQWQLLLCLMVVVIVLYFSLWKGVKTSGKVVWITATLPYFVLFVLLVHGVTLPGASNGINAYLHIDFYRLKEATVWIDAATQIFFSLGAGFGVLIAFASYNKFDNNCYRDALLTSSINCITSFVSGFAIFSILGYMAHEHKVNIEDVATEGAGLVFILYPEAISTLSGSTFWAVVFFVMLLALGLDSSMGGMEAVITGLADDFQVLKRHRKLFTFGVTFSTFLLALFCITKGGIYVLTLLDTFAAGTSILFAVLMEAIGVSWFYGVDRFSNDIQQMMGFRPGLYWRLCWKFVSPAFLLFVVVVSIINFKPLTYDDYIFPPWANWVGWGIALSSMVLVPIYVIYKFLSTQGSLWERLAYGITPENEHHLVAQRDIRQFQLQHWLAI

A word on the Ki: it is the equilibrium dissociation constant of an inhibitor or competing ligand from its target. On to `c1ccc(-c2ccccc2-c2ccccc2CO[C@H]2CCNC2)cc1` [Example D-34, (S)-3-([1,1′,2′,1″]Terphenyl-2-ylmethoxy)-pyrrolidine], for which the Ki worked out at 0.554 µM in test [1] and 2.75 µM in test [2].

Consider `Cc1cccc(-c2ccccc2CO[C@H]2CCNC2)c1C` [Example D-35, (S)-3-(2′,3′-Dimethyl-biphenyl-2-ylmethoxy)-pyrrolidine], for which the values for the Ki in test [1] and in test [2] were 0.585 µM and 0.0596 µM, respectively.

As to `COc1ccc(-c2ccccc2CO[C@H]2CCNC2)cc1OC` [Example D-36, (S)-3-(3′,4′-Dimethoxy-biphenyl-2-ylmethoxy)-pyrrolidine], the figures for the Ki in test [1] and in test [2] were 0.635 µM and 0.15 µM, respectively.

As for `FC(F)(F)Oc1ccccc1-c1ccccc1CO[C@H]1CCNC1` [Example D-37, (S)-3-(2′-Trifluoromethoxy-biphenyl-2-ylmethoxy)-pyrrolidine], the values for the Ki in test [1] and in test [2] were 1 µM and 5.65 µM, respectively.

Regarding `OCc1cccc(-c2ccccc2CO[C@H]2CCNC2)c1` [Example D-38, (S)-[2′-(Pyrrolidin-3-yloxymethyl)-biphenyl-3-yl]-methanol], the Ki in test [1] came to 1.19 µM; in test [2], 0.0393 µM.

As to `CCOc1ccc(-c2ccccc2CO[C@H]2CCNC2)cc1` [Example D-40, (S)-3-(4′-Ethoxy-biphenyl-2-ylmethoxy)-pyrrolidine], the Ki in test [1] turned out to be 1.26 µM; in test [2], 0.919 µM.

With `CC(=O)c1cccc(-c2ccccc2CO[C@H]2CCNC2)c1` [Example D-41], the Ki in test [1] was determined as 1.28 µM; in test [2], 0.345 µM.

Consider `CC(=O)c1ccccc1-c1ccccc1CO[C@H]1CCNC1` [Example D-42, (S)-1-[2′-(Pyrrolidin-3-yloxymethyl)-biphenyl-2-yl]-ethanone], for which the Ki in test [1] was 2.54 µM; in test [2], at least 10 µM.

`FC(F)(F)Oc1ccc(-c2ccccc2CO[C@H]2CCNC2)cc1` [Example D-43, (S)-3-(4′-Trifluoromethoxy-biphenyl-2-ylmethoxy)-pyrrolidine]: the Ki in test [1] amounted to 2.67 µM; in test [2] it was 0.0169 µM.

`COc1ccc(Cl)cc1-c1ccccc1CO[C@H]1CCNC1` [Example D-44, (S)-3-(5′-Chloro-2′-methoxy-biphenyl-2-ylmethoxy)-pyrrolidine]: the Ki in test [1] came to 3.34 µM; in test [2] it was 0.0124 µM.

As for `c1cc(-c2ccccc2CO[C@H]2CCNC2)cc(-n2cccn2)c1` [Example D-45, (S)-1-[2′-(Pyrroldin-3-yloxymethyl)-biphenyl-3-yl]-1H-pyrazole], the Ki was 3.34 µM in test [1] and 0.0124 µM in test [2].

As to `c1ccc(-c2ccc3c(c2)OCCO3)c(CO[C@H]2CCNC2)c1` [Example D-46], the Ki in test [1] is 3.88 µM; in test [2] it was 3.76 µM.

As for `CC(=O)c1ccc(-c2ccccc2CO[C@H]2CCNC2)cc1` [Example D-47, (S)-1-[2′-(Pyrrolidin-3-yloxymethyl)-biphenyl-4-yl]-ethanone], the Ki in test [1] came to 4.12 µM; in test [2], 0.906 µM.

Regarding `c1ccc(COc2ccccc2-c2ccccc2CO[C@H]2CCNC2)cc1` [Example D-48, (S)-3-(2′-Benzyloxy-biphenyl-2-ylmethoxy)-pyrrolidine], the Ki is 4.18 µM in test [1] and at least 10 µM in test [2].

Turning to `COc1ccc(C(C)C)cc1-c1ccccc1CO[C@H]1CCNC1` [Example D-49, (S)-(5′-Isopropyl-2′-methoxy-biphenyl-2-ylmethoxy)-pyrrolidine], the values for the Ki in test [1] and in test [2] were 4.23 µM and 2.97 µM, respectively.

As for `c1ccc(-c2ccc3c(c2)OCCCO3)c(CO[C@H]2CCNC2)c1` [Example D-50, (S)-3-[2-(3,4-Dihydro-2H-benzo[b][1,4]dioxepin-7-yl)-benzyloxy]-pyrrolidine], the results for the Ki in test [1] and in test [2] were 4.45 µM and 0.709 µM, respectively.

Take `N#Cc1ccc(-c2ccccc2CO[C@H]2CCNC2)cc1` [Example D-51]: the Ki stood at 5.41 µM in test [1] and 5.46 µM in test [2].

Regarding `N#Cc1ccccc1-c1ccccc1CO[C@H]1CCNC1` [Example D-52], the Ki in test [1] and in test [2] was at least 10 µM each time.

With `N#Cc1cccc(-c2ccccc2CO[C@H]2CCNC2)c1` [Example D-53], the Ki in test [1] and in test [2] was at least 10 µM in each case.

`COc1ccc(-c2ccccc2CO[C@H]2CCNC2)c(OC)c1` [Example D-54, (S)-3-(2′,4′-Dimethoxy-biphenyl-2-ylmethoxy)-pyrrolidine]: the Ki in test [1] and in test [2] was at least 10 µM each time.

With `FC(F)(F)c1ccc(-c2ccccc2CO[C@H]2CCNC2)cc1` [Example D-55, (S)-3-(4′-Trifluoromethyl-biphenyl-2-ylmethoxy)-pyrrolidine], the Ki was at least 10 µM in test [1] and 0.201 µM in test [2].

On to `CC(C)Oc1ccc(-c2ccccc2CO[C@H]2CCNC2)cc1` [Example D-56, (S)-(4′-Isopropoxy-biphenyl-2-ylmethoxy)-pyrroldine], for which the Ki in test [1] was at least 10 µM; in test [2], 0.658 µM.

`COc1cc(-c2ccccc2CO[C@H]2CCNC2)cc(OC)c1OC` [Example D-57, (S)-3-(3′,4′,5′-Trimethoxy-biphenyl-2-ylmethoxy)-pyrrolidine]: the results for the inhibitory constant (Ki) in test [1] and in test [2] were at least 10 µM and 0.589 µM, respectively.

Regarding `CCS(=O)(=O)c1ccc(-c2ccccc2CO[C@H]2CCNC2)cc1` [Example D-58, (S)-3-(4′-Ethanesulfonyl-biphenyl-2-ylmethoxy)-pyrrolidine], the Ki in test [1] is at least 10 µM; in test [2], 3.03 µM.

Turning to `Cc1cc(C)n(-c2cccc(-c3ccccc3CO[C@H]3CCNC3)c2)n1` [Example D-59, (S)-3,5-Dimethyl-1-[2′-(pyrrolidin-3-yloxymethyl)-biphenyl-3-yl]-1H-pyrazole], the Ki in test [1] is at least 10 µM; in test [2], 0.0578 µM.

Turning to `COc1cccc(-c2ccccc2CO[C@H]2CCNC2)c1C(=O)N(C(C)C)C(C)C` [Example D-60, (S)-3-Methoxy-2′-(pyrrolidin-3-yloxymethyl)-biphenyl-2-carboxylic acid diisopropylamide], the Ki was at least 10 µM in test [1] and 0.882 µM in test [2].

Regarding `COc1ccc(Cl)cc1-c1ccc(F)cc1CO[C@H]1CCNC1` [Example D-61, (S)-3-(5′-Chloro-4-fluoro-2′-methoxy-biphenyl-2-ylmethoxy)-pyrrolidine], the figures for the Ki in test [1] and in test [2] were 0.993 µM and 0.794 µM, respectively.

As for `N#Cc1cccc(-c2ccc(F)cc2CO[C@H]2CCNC2)c1` [Example D-62, (S)-4′-Fluoro-2′-(pyrrolidin-3-yloxymethyl)-biphenyl-3-carbonitrile], the values for the Ki in test [1] and in test [2] were 0.48 µM and 0.319 µM, respectively.

For the compound `Cc1ccc(-c2ccc(F)cc2CO[C@H]2CCNC2)cc1` [Example D-63, (S)-3-(4-Fluoro-4′-methyl-biphenyl-2-ylmethoxy)-pyrrolidine], the Ki in test [1] was 0.0366 µM; in test [2], 0.423 µM.

Regarding `COc1ccc(F)cc1-c1ccc(F)cc1CO[C@H]1CCNC1` [Example D-64, (S)-3-(4,5′-Difluoro-2′-methoxy-biphenyl-2-ylmethoxy)-pyrroldine], the inhibition constant Ki in test [1] came out at 1.29 µM; in test [2] it was 0.656 µM.

As for `Fc1ccc(-c2cc(Cl)cc(Cl)c2)c(CO[C@H]2CCNC2)c1` [Example D-65, (S)-3-(3′,5′-Dichloro-4-fluoro-biphenyl-2-ylmethoxy)-pyrrolidine], the Ki in test [1] stood at 0.265 µM; in test [2] it was 0.0497 µM.
